Test results published in patent US8183228B2, “Anticoagulant antithrombotic dual inhibitors comprising a biotin label” (MSD OSS B.V. Netherlands, priority 2005, dated 2012).
Counter-ions that a name gives are not always drawn.

Columns and labels:
[1] = tested on: guinea pig platelet aggregation; assay: In vitro neutralisation of inhibition of guinea pig platelet aggregation by avidin; type: cell-based; conditions: avidin added to ADP-induced guinea pig platelet aggregation assay
Procedure: 2.1 In Vitro Neutralization of the Antithrombotic Activity A. In Vitro Neutralisation of Inhibition of Platelet Aggregation (Pre-Incubation of Compound with Avidin)
(§1) As performed in above described protocol for ADP-induced platelet aggregation. […] Before inducing the guinea pig platelet aggregation by adding ADP, compound and avidin (from egg white, Sigma) in different concentrations were pre-incubated for 2 minutes at room temperature (FIGS. 1 and 2).
B. In Vitro Neutralisation of Inhibition of Platelet Aggregation
(After Delayed Addition of Avidin)
(§2) As performed in above described protocol for ADP-induced platelet aggregation. […] After 7 minutes the detection of platelet aggregation was interrupted and avidin (from egg white, Sigma) in different concentrations was added at t=9 min. Within 1 minute the detection of the platelet aggregation was resumed (FIGS. 3 and 4).

[2] = tested on: guinea pig platelet rich plasma; assay: Inhibition of guinea pig platelet aggregation induced by ADP (PRP); type: cell-based; conditions: for IC50: guinea pig PRP
Description: 1.1 In Vitro Test for Inhibition of Guinea Pig Platelet Aggregation Induced by ADP
Addition of adenosine diphosphate (ADP) to human or guinea pig platelet rich plasma (PRP) in vitro induces platelet aggregation. This aggregation can be assessed by measuring the change in optical density (OD) of the PRP. The following in vitro test was used to evaluate the test compound for interference with the ADP-induced aggregation of guinea pigs.
Platelet rich plasma (PRP): Free-flowing blood is taken from a healthy volunteer or a guinea pig and collected in 0.1 volume sodium citrate.2H2O, 3.8% in distilled H2O (w/v). The final concentration is 0.38% sodium citrate. The citrated blood is centrifuged at 1,600 N/kg (160 g, i.e., 900 rpm in a Hettich Rotanta/AP at room temperature. After 15 minutes centrifugation is discontinued with brake turned off, and the supernatant (=PRP) is collected. A fresh solution of ADP (analytical grade), 50 μM in 0.9% NaCl in MQ water, is used immediately.
The platelets in the supernatant (PRP) are counted using a Sysmex blood cell counter and the supernatant is diluted with PPP (platelet poor plasma) to obtain a PRP containing approximately 400,000±50,000 plt/mL. PRP should stabilize at room temperature for at least 20 min but not longer than 3 h.
150 μL PRP is pipetted into a well of the microplate. 30 μL test compound in a range of concentrations (7 concentrations per compound) or vehicle is added and the microplate is placed in the Labsystems iEMS reader MF at 37° C. The optical density (OD620) is then measured at 620 nm. After shaking for 2 minutes in the reader (1,000 rpm), the OD is measured for the second time. This is to verify the stability of the platelets (absence of spontaneous platelet aggregation). Then, 20 μL of 50 μM ADP solution is added and the OD is kinetically measured every minute for 14 minutes at 620. Between two measurements, the plate is shaking for 40 seconds at 1,000 rpm. Each test compound is investigated in at least 2 experiments using PRP from different volunteers.
The mean OD at each compound concentration (including vehicle) is calculated at t=0 min and t=10 min. The percentage inhibition at each concentration is calculated using the formula: […]
The IC50 of the test compound is the concentration at which the ADP-induced platelet aggregation is reduced by 50%. For this, the percentage inhibition values are plotted against compound concentration and the IC50 is calculated using Graphpad Prism 3.0 (with variable slope).
as §1

[3] = tested on: human platelet aggregation; assay: In vitro neutralisation of inhibition of human platelet aggregation by avidin; type: cell-based; conditions: avidin added 9 minutes after ADP-induced aggregation, human platelets
Procedure: as §2
In FIG. 5, the effect of avidin on the inhibition of human platelet aggregation by compound 17 is shown (addition of avidin 9 minutes after ADP-induced platelet aggregation).

[4] = Bleeding in guinea pigs and its stop by avidin; type: in vivo, guinea pig; conditions: guinea pigs

## CO[C@H]1O[C@H](COS(=O)(=O)O)[C@@H](O[C@@H]2O[C@@H](C(=O)O)[C@@H](O[C@H]3O[C@H](COS(=O)(=O)O)[C@@H](O[C@@H]4O[C@H](C(=O)O)[C@@H](O[C@H]5O[C@H](COS(=O)(=O)O)[C@@H](OCCOCCOCCOCCNC(=O)[C@H](CCCCNC(=O)CCCC[C@@H]6SC[C@@H]7NC(=O)N[C@@H]76)NC(=O)COCCOCCOCCOCCNC(=O)c6cccc(S(=O)(=O)N[C@@H](Cc7ccc(OCCCCC8CCNCC8)cc7)C(=O)O)c6)[C@H](OC)[C@H]5OC)[C@H](OC)[C@H]4OC)[C@H](OS(=O)(=O)O)[C@H]3OS(=O)(=O)O)[C@H](OC)[C@H]2OC)[C@H](OS(=O)(=O)O)[C@H]1OS(=O)(=O)O [Compound 10, sodium salt]
[1]
  effect of avidin on inhibition of guinea pig platelet aggregation (neutralisation of anti-GPIIbIIIa activity): immediate restoration of platelet aggregation
[2]
  concentration at which maximal inhibition of the guinea pig platelet aggregation is achieved: 450 nM
  IC50: 225 nM

## CO[C@H]1O[C@H](COS(=O)(=O)O)[C@@H](O[C@@H]2O[C@@H](C(=O)O)[C@@H](O[C@H]3O[C@H](COS(=O)(=O)O)[C@@H](O[C@@H]4O[C@H](C(=O)O)[C@@H](O[C@H]5O[C@H](COS(=O)(=O)O)[C@@H](OCCOCCOCCOCCNC(=O)COCCOCCOCCOCCNC(=O)c6cccc(S(=O)(=O)N[C@@H](Cc7ccc(OCCCCC8CCNCC8)cc7)C(=O)O)c6)[C@H](OC)[C@H]5OC)[C@H](OC)[C@H]4OC)[C@H](OS(=O)(=O)O)[C@H]3OS(=O)(=O)O)[C@H](OC)[C@H]2OC)[C@H](OS(=O)(=O)O)[C@H]1OS(=O)(=O)O [Compound 12, sodium salt, reference compound]
[1]
  effect of avidin on inhibition of guinea pig platelet aggregation (neutralisation of anti-GPIIbIIIa activity): cannot be restored
[2]
  concentration at which maximal inhibition of the guinea pig platelet aggregation is achieved: 225 nM
  IC50: 127 nM

## CO[C@H]1O[C@H](COS(=O)(=O)O)[C@@H](O[C@@H]2O[C@@H](C(=O)O)[C@@H](O[C@H]3O[C@H](COS(=O)(=O)O)[C@@H](O[C@@H]4O[C@H](C(=O)O)[C@@H](O[C@H]5O[C@H](COS(=O)(=O)O)[C@@H](OCCOCCOCCOCCNC(=O)[C@H](CCCCNC(=O)C[C@H](NC(=O)CCCC[C@@H]6SC[C@@H]7NC(=O)N[C@@H]76)C(=O)O)NC(=O)COCCOCCOCCOCCNC(=O)c6cccc(S(=O)(=O)N[C@@H](Cc7ccc(OCCCCC8CCNCC8)cc7)C(=O)O)c6)[C@H](OC)[C@H]5OC)[C@H](OC)[C@H]4OC)[C@H](OS(=O)(=O)O)[C@H]3OS(=O)(=O)O)[C@H](OC)[C@H]2OC)[C@H](OS(=O)(=O)O)[C@H]1OS(=O)(=O)O [Compound 17, sodium salt]
[2]
  IC50: 66 nM
[3]
  effect of avidin on inhibition of human platelet aggregation: full restoration of human platelet aggregation
[4]
  bleeding induced after administration: dose-dependent bleeding
[4]; avidin i.v. 10 mg/kg
  effect of avidin on induced bleeding: stopped immediately
